US7259155B2, “Phosphonic diester derivatives” (Otsuka Pharmaceutical Factory, Inc., priority 2004, dated 2007)

Biological target: T1, ACAT-1 (Homo sapiens, UniProt P35610)
T1 construct: To 2.6 ml of broken homogenate having a protein concentration of 2.5 mg/ml was added 0.65 ml of 5×DOC/PC; endogenous in cells; host or cells: SW-13 cells (human adrenal cortical adenocarcinoma); broken homogenate solubilised with deoxycholate/PC and reconstituted into cholesterol/PC vesicles
T1 sequence (P35610 1-550): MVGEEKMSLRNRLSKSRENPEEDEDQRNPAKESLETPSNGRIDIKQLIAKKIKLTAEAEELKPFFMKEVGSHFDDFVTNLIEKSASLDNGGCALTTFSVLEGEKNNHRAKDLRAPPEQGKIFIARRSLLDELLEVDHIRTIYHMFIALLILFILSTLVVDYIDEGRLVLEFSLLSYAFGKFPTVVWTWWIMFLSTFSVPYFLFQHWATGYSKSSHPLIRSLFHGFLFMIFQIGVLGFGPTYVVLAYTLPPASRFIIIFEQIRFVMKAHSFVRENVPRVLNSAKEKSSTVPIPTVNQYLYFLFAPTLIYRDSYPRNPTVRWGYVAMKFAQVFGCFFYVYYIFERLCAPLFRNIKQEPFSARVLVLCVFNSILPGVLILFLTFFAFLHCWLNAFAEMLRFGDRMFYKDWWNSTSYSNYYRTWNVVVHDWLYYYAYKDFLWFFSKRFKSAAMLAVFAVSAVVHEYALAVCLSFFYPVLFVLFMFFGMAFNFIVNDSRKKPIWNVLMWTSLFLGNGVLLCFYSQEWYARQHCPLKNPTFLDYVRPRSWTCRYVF
Experiment: ACAT-1 Inhibitory Action Test 1 (reconstituted vesicle assay, enzyme solution from SW-13 cell broken homogenate)
Type: biochemical
Conditions: test substance 1×10^−3 mol/l in DMSO, 2.5 μl added to 200 μl enzyme solution + 50 μl substrate solution; 37° C., 30 minutes; decrease in total cholesterol ester vs DMSO control
Protocol: SW-13 cells (derived from human adrenal cortical adenocarcinoma) were cultured on a culture plate until confluence in an L-15 culture medium containing 10% fetal bovine serum (FBS) in a carbon dioxide incubator.
Broken homogenates were collected according to a published procedure (hypotonic shock and scrapping method, Anal. Biochem., 116, 298–302 (1981)), subjected to protein quantitation (Bradford method), and stored at −80° C. till use.
Chol/PC vesicles (Chol/PC=3.9 mM/12.8 mM) were prepared according to a method described by Chang et al. (Chang, T. Y. et al., Anal. Biochem., 157, 323–330 (1986)). […]
With respect to the hexane phase in the glass test tube, the solvent was removed under a nitrogen gas stream. […] Using a bio-imaging analyzer (BAS-2000II, manufactured by Fuji Photo Film Co., Ltd.), the ^14C of the cholesterol ester fraction was quantified.
With respect to the hexane phase in the scintillation vial, ^3H was counted after adding a scintillation cocktail. Based on the amount of ^3H in the [^3H]-cholesteryl oleate-containing ethanol, the extraction efficiency was calculated. Based on the extraction efficiency, the amount of total cholesterol ester produced was calculated. In comparison with the control, decrease in the amount of the total cholesterol ester produced when a test substance was used was expressed as ACAT-1 enzyme inhibition (%).

diethyl 4-(7-chloro-3-N-(4-methyl -benzylideneamin)-4(3H)-quinazolinon-2-yl)benzylphosphonate [Example 1]
ACAT-1 enzyme inhibition (%): 75%
